Among the data in ChEMBL document CHEMBL1135082, “Benzylidene rhodanines as novel inhibitors of UDP-N-acetylmuramate/L-alanine ligase” (Bioorg Med Chem Lett, 2002) are IC50 and MIC values, retold here.

Converted amounts (≈) assume the structure as drawn.

Experiment [1] can be described thus: Inhibitory concentration against recombinant UDP-N-Acetylmuramate/L-Alanine Ligase (MurC) enzyme.
The test system of another experiment is Escherichia coli. Put plainly: The whole cell inhibitory activity was evaluated against the Gram-negative Escherichia coli; Not active. In kind it is functional.
The subject of another experiment is Staphylococcus aureus. Nature of the experiment: The whole cell inhibitory activity was evaluated against Gram-positive methicillin-resistant Staphylococcus aureus (MRSA). In kind it is functional.
Experiment [2] concerns CHO. Put plainly: Cytotoxic effect at mammalian Chinese hamster ovary (CHO) cells. The class given is functional, cell-based. The following applies: Cricetulus griseus.
Experiment [3] concerns CHO. Nature of the experiment: Cytotoxic effect at mammalian Chinese hamster ovary (CHO) cells; Toxic. In kind it is functional, cell-based. As to conditions: Cricetulus griseus.

`O=C1NC(=S)S/C1=C\c1cc([N+](=O)[O-])ccc1Oc1ccc(Cl)cc1`: in experiment [1], the IC50 (commonly the concentration that gives 50% inhibition) amounted to 24 µM. The MIC against Escherichia coli and against Staphylococcus aureus was greater than 76 µM each time.
With `O=C1NC(=S)S/C1=C\c1ccc(/C=C/c2ccccc2)cc1`, the concentration for half-maximal inhibition (IC50) in experiment [1] was determined as 18 µM. Further, the MIC against Escherichia coli and in the experiment on Staphylococcus aureus was greater than 93 µM throughout.
`O=C1NC(=S)S/C1=C\c1cccc(Oc2ccccc2)c1`: the IC50 was 22 µM in experiment [1] and greater than 96 µM in the experiment on CHO [2]. The MIC (in general, the lowest concentration that inhibits growth of the organism) against Escherichia coli is greater than 87 µM; in the experiment on Staphylococcus aureus, 79 µM (≈ 24.8 µg/mL).
Regarding `O=C1NC(=S)S/C1=C/c1cc([N+](=O)[O-])ccc1SCc1ccc(Cl)cc1`, the 50% inhibitory concentration (IC50) in experiment [1] turned out to be 27 µM; with CHO [3] it was 29 µM. Moreover, the MIC in the experiment with Escherichia coli is greater than 65 µM; in the experiment on Staphylococcus aureus, 31 µM (≈ 13.1 µg/mL).
Take `O=C1NC(=S)S/C1=C\c1cc(OCc2ccccc2)cc(OCc2ccccc2)c1`: the IC50 in experiment [1] turned out to be 12 µM. In addition, the MIC in the experiment with Escherichia coli and in the experiment with Staphylococcus aureus was greater than 69 µM each time.
`O=C1NC(=S)S/C1=C\c1cc([N+](=O)[O-])ccc1Sc1ccc(Cl)cc1`: the IC50 was 24 µM in experiment [1] and greater than 73 µM in the experiment with CHO [2]. For the same compound, the MIC in the experiment on Escherichia coli was greater than 87 µM; against Staphylococcus aureus it was 70 µM (≈ 28.6 µg/mL).
